# From patent publication US5741671A, “Isolation cloning and expression of transmembrane water channel aquaporin 1(AQP1)” (The Johns Hopkins University, priority 1995, dated 1998)
# Legend:
# AQP1 = molecular target: T1, AQP1 (Homo sapiens, UniProt P29972); assay: Xenopus oocyte swelling assay, AQP1 cRNA-injected oocytes (Example 11); type: cell-based; design: expressed in transfected cells; host or cells: Xenopus oocytes injected with AQP1 cRNA
# T1 sequence (P29972 1-269): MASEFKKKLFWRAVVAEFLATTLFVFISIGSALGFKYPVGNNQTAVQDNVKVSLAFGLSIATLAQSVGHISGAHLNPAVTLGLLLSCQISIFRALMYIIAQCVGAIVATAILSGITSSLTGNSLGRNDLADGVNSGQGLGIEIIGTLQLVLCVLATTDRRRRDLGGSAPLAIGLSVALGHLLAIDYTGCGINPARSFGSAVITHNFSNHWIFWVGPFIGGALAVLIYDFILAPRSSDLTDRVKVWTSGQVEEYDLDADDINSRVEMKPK
# control-injected oocytes = assay: Xenopus oocyte osmotic swelling assay, control-injected oocytes; type: cell-based, Xenopus laevis; conditions: no RNA injected, 0.3 mM HgCl2, 22° C.
# Experimental: Expression of AQP1 in Xenopus oocytes. Oocytes were removed from female Xenopus laevis frogs and prepared as described by Dascal (CRC Crit. Rev. Biochem., 1987, 22:317-373). Oocytes were injected with 0.05 microliters of water (control) or the same volume of water containing 1-10 nanograms of AQP1 RNA. The oocytes were incubated for up to 96 hours at 18° C. in modified Barth's buffer (88 mM NaCl, 1 mM KCl, 0.8 mM MgSO4, 0.3 mM Ca(NO3)2, 0.4 mM CaCl2, 2.4 mm NaHCO3, 10 mM HEPES, pH=7.4, total osmolality=200 mOsm/kg) also containing antibiotics. The whole oocytes were then removed and total cellular protein was dissolved in 40 microliters of buffer containing 1% (w/v) SDS and analyzed by immunoblot (Towbin et al., 1979, Proc. Natl. Acad. Sci. USA 76:4350-4354).
# A swelling assay was adapted from that of published work (Fischbarg et al., 1990, Proc. Natl. Acad. Sci. USA 87:3244-3247; Zhang et al., 1990, J. Biol. Chem. 265: 15375-15378). […] Swelling was monitored with a Nikon phase-contrast microscope equipped for videorecording. The longest (D1) and shortest (D2) diameters of the oocytes were measured at 15- to 30-second intervals. Oocyte volumes (V) at each time point were calculated relative to volume at the initial observation (Vo): […]
# [1] = Stopped-flow osmotic water permeability of control liposomes; type: biochemical; conditions: mercurial reagent 1 mM
# Experimental: Purified AQP1 was stored overnight at 0° C. or frozen for several days at -80° C. prior to reconstitution. Reconstitution into proteoliposomes was carried out in a final volume of 1 ml containing 60-90 μg of purified AQP1 protein in chromatography buffer, 9 mg of bath-sonicated E. coli phospholipid, 1.25% (w/v) octyl glucoside, and 50 mM Tris-HCl (pH 7.5). The mixture was briefly blended on a vortex mixer and incubated for 20 minutes on ice. […] Protein and phospholipid were measured as described by Ambudkar & Maloney (J. Biol. Chem., 1986, 261:10079-10086).
# Permeability measurements. Membrane permeability measurements (Pf) were measured by exposing AQP1 proteoliposomes or control liposomes to an osmotic gradient by rapid mixing with an equal volume of another solution containing buffer A plus sufficient sucrose to increase osmolality in the mixed solutions to a value 120% of that in the original solution. This was performed with a stopped-flow fluorometer (SF.17MV, Applied Photophysics, Leatherhead, U.K.) with a measured dead time of 0.7 ms. […] Extravesicular carboxyfluorescein fluorescence was completely quenched using anti-fluorescein antibody (Harris et al., 1990, Am. J. Physiol. 259:F366-F371). […]
restoration of Pf of AQP1-expressing oocytes after HgCl2 (AQP1; 5 mM β-mercaptoethanol 30 min after 1 mM HgCl2),SMILES,Pf (osmotic water permeability) (control-injected oocytes),effect on the Pf of control liposomes [1],"inhibition of the increase in Pf mediated by AQP1 (AQP1; 1 mM HgCl2, 5 min)"
restored,OCCS [β-mercaptoethanol],–,–,–
–,[Cl][Hg][Cl] [HgCl2],20.3 cm/s x 10^-4,Neither pCMBS nor HgCl2 had any effect,blocked
